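In this assay, cells in 96-well plates receive the compound at five concentrations for 48 hours. Endpoints are linearly interpolated between the surrounding concentrations. Here, GI50 denotes the concentration required for 50% inhibition of growth. TGI is the concentration that stops growth completely.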
Columns and labels:
Test in all cases: DTP human tumour cell line panel, 48 h
786-0 renal = system: 786-0 renal
A498 renal = system: A498 renal
A549 NSCLC = system: A549 NSCLC
ACHN renal = system: ACHN renal
BT-549 breast = system: BT-549 breast
CAKI-1 renal = system: CAKI-1 renal
CCRF-CEM leukemia = system: CCRF-CEM leukemia
COLO 205 colon = system: COLO 205 colon
DU-145 prostate = system: DU-145 prostate
EKVX NSCLC = system: EKVX NSCLC
HCC-2998 colon = system: HCC-2998 colon
HCT-116 colon = system: HCT-116 colon
HCT-15 colon = system: HCT-15 colon
HL-60(TB) leukemia = system: HL-60(TB) leukemia
HOP-62 NSCLC = system: HOP-62 NSCLC
HOP-92 NSCLC = system: HOP-92 NSCLC
HS 578T breast = system: HS 578T breast
HT29 colon = system: HT29 colon
IGROV1 ovarian = system: IGROV1 ovarian
K-562 leukemia = system: K-562 leukemia
KM12 colon = system: KM12 colon
LOX IMVI melanoma = system: LOX IMVI melanoma
M14 melanoma = system: M14 melanoma
MALME-3M melanoma = system: MALME-3M melanoma
MCF7 breast = system: MCF7 breast
MDA-MB-231 breast = system: MDA-MB-231 breast
MDA-MB-435 = system: MDA-MB-435
MOLT-4 leukemia = system: MOLT-4 leukemia
NCI-H226 lung = system: NCI-H226 lung
NCI-H23 lung = system: NCI-H23 lung
NCI-H460 lung = system: NCI-H460 lung
NCI-H522 lung = system: NCI-H522 lung
NCI/ADR-RES ovarian = system: NCI/ADR-RES ovarian
OVCAR-3 ovarian = system: OVCAR-3 ovarian
OVCAR-4 ovarian = system: OVCAR-4 ovarian
OVCAR-5 ovarian = system: OVCAR-5 ovarian
OVCAR-8 ovarian = system: OVCAR-8 ovarian
PC-3 prostate = system: PC-3 prostate
RPMI-8226 leukemia = system: RPMI-8226 leukemia
RXF 393 renal = system: RXF 393 renal
SF-268 CNS = system: SF-268 CNS
SF-295 CNS = system: SF-295 CNS
SF-539 CNS = system: SF-539 CNS
SK-MEL-2 melanoma = system: SK-MEL-2 melanoma
SK-MEL-28 melanoma = system: SK-MEL-28 melanoma
SK-MEL-5 melanoma = system: SK-MEL-5 melanoma
SK-OV-3 ovarian = system: SK-OV-3 ovarian
SN12C renal = system: SN12C renal
SNB-19 CNS = system: SNB-19 CNS
SNB-75 CNS = system: SNB-75 CNS
SR leukemia = system: SR leukemia
SW-620 colon = system: SW-620 colon
T-47D breast = system: T-47D breast
TK-10 renal = system: TK-10 renal
U251 CNS = system: U251 CNS
UACC-257 melanoma = system: UACC-257 melanoma
UACC-62 melanoma = system: UACC-62 melanoma
UO-31 renal = system: UO-31 renal

NS(=O)(=O)c1ccc(N=Nc2c(O)[nH]c3ccc(C(=O)NCCc4cnc[nH]4)cc23)cc1
GI50 (786-0 renal): > 25 µM | TGI (786-0 renal): > 25 µM | GI50 (A498 renal): > 25 µM | TGI (A498 renal): > 25 µM | GI50 (A549 NSCLC): > 25 µM | TGI (A549 NSCLC): > 25 µM | GI50 (ACHN renal): > 25 µM | TGI (ACHN renal): > 25 µM | GI50 (BT-549 breast): > 25 µM | TGI (BT-549 breast): > 25 µM | GI50 (CAKI-1 renal): > 25 µM | TGI (CAKI-1 renal): > 25 µM | GI50 (CCRF-CEM leukemia): > 25 µM | TGI (CCRF-CEM leukemia): > 25 µM | GI50 (COLO 205 colon): > 25 µM | TGI (COLO 205 colon): > 25 µM | GI50 (DU-145 prostate): > 25 µM | TGI (DU-145 prostate): > 25 µM | GI50 (EKVX NSCLC): > 25 µM | TGI (EKVX NSCLC): > 25 µM | GI50 (HCC-2998 colon): > 25 µM | TGI (HCC-2998 colon): > 25 µM | GI50 (HCT-116 colon): > 25 µM | TGI (HCT-116 colon): > 25 µM | GI50 (HCT-15 colon): > 25 µM | TGI (HCT-15 colon): > 25 µM | GI50 (HL-60(TB) leukemia): > 25 µM | TGI (HL-60(TB) leukemia): > 25 µM | GI50 (HOP-62 NSCLC): > 25 µM | TGI (HOP-62 NSCLC): > 25 µM | GI50 (HOP-92 NSCLC): > 25 µM | TGI (HOP-92 NSCLC): > 25 µM | GI50 (HS 578T breast): > 25 µM | TGI (HS 578T breast): > 25 µM | GI50 (HT29 colon): > 25 µM | TGI (HT29 colon): > 25 µM | GI50 (IGROV1 ovarian): > 25 µM | TGI (IGROV1 ovarian): > 25 µM | GI50 (K-562 leukemia): > 25 µM | TGI (K-562 leukemia): > 25 µM | GI50 (KM12 colon): > 25 µM | TGI (KM12 colon): > 25 µM | GI50 (LOX IMVI melanoma): > 25 µM | TGI (LOX IMVI melanoma): > 25 µM | GI50 (M14 melanoma): > 25 µM | TGI (M14 melanoma): > 25 µM | GI50 (MALME-3M melanoma): > 25 µM | TGI (MALME-3M melanoma): > 25 µM | GI50 (MCF7 breast): > 25 µM | TGI (MCF7 breast): > 25 µM | GI50 (MDA-MB-231 breast): > 25 µM | TGI (MDA-MB-231 breast): > 25 µM | GI50 (MDA-MB-435): > 25 µM | TGI (MDA-MB-435): > 25 µM | GI50 (MOLT-4 leukemia): > 25 µM | TGI (MOLT-4 leukemia): > 25 µM | GI50 (NCI-H226 lung): > 25 µM | TGI (NCI-H226 lung): > 25 µM | GI50 (NCI-H23 lung): > 25 µM | TGI (NCI-H23 lung): > 25 µM | GI50 (NCI-H460 lung): > 25 µM | TGI (NCI-H460 lung): > 25 µM | GI50 (NCI-H522 lung): > 25 µM | TGI (NCI-H522 lung): > 25 µM | GI50 (NCI/ADR-RES ovarian): > 25 µM | TGI (NCI/ADR-RES ovarian): > 25 µM | GI50 (OVCAR-3 ovarian): > 25 µM | TGI (OVCAR-3 ovarian): > 25 µM | GI50 (OVCAR-4 ovarian): > 25 µM | TGI (OVCAR-4 ovarian): > 25 µM | GI50 (OVCAR-5 ovarian): > 25 µM | TGI (OVCAR-5 ovarian): > 25 µM | GI50 (OVCAR-8 ovarian): > 25 µM | TGI (OVCAR-8 ovarian): > 25 µM | GI50 (PC-3 prostate): > 25 µM | TGI (PC-3 prostate): > 25 µM | GI50 (RPMI-8226 leukemia): > 25 µM | TGI (RPMI-8226 leukemia): > 25 µM | GI50 (RXF 393 renal): > 25 µM | TGI (RXF 393 renal): > 25 µM | GI50 (SF-268 CNS): > 25 µM | TGI (SF-268 CNS): > 25 µM | GI50 (SF-295 CNS): > 25 µM | TGI (SF-295 CNS): > 25 µM | GI50 (SF-539 CNS): > 25 µM | TGI (SF-539 CNS): > 25 µM | GI50 (SK-MEL-2 melanoma): > 25 µM | TGI (SK-MEL-2 melanoma): > 25 µM | GI50 (SK-MEL-28 melanoma): > 25 µM | TGI (SK-MEL-28 melanoma): > 25 µM | GI50 (SK-MEL-5 melanoma): > 25 µM | TGI (SK-MEL-5 melanoma): > 25 µM | GI50 (SK-OV-3 ovarian): > 25 µM | TGI (SK-OV-3 ovarian): > 25 µM | GI50 (SN12C renal): > 25 µM | TGI (SN12C renal): > 25 µM | GI50 (SNB-19 CNS): > 25 µM | TGI (SNB-19 CNS): > 25 µM | GI50 (SNB-75 CNS): > 25 µM | TGI (SNB-75 CNS): > 25 µM | GI50 (SR leukemia): > 25 µM | TGI (SR leukemia): > 25 µM | GI50 (SW-620 colon): > 25 µM | TGI (SW-620 colon): > 25 µM | GI50 (T-47D breast): > 25 µM | TGI (T-47D breast): > 25 µM | GI50 (TK-10 renal): > 25 µM | TGI (TK-10 renal): > 25 µM | GI50 (U251 CNS): > 25 µM | TGI (U251 CNS): > 25 µM | GI50 (UACC-257 melanoma): > 25 µM | TGI (UACC-257 melanoma): > 25 µM | GI50 (UACC-62 melanoma): > 25 µM | TGI (UACC-62 melanoma): > 25 µM | GI50 (UO-31 renal): > 25 µM | TGI (UO-31 renal): > 25 µM
